In patent publication EP1027887B1, “Matrix controlled release device” (Pfizer Products Inc., priority 1999, dated 2000):
Values after ≈ are worked out from the molar mass of the structure shown.

Experiments:
Format in all cases: physicochemical
[1] = In vitro dissolution test in 30 ml MFD solution (Reference Example 5)
Method: (§1) Phosphate buffered saline solution (PBS) was prepared comprising 20 mM sodium phosphate, […] potassium phosphate, 87 mM NaCl and 0.2 mM KCl, adjusted to pH 6.5. Four in vitro dissolution tests were performed in 35 mL of the PBS solution at 37°C to test the effectiveness of drug release from the dosage composition of the invention as measured against Controls A, B and C. Drug concentrations over time were determined by periodically withdrawing samples of each of the four solutions, centrifuging the samples for 1 minute at 13,000 rpm to pellet any undissolved drug, sampling the supernate, and analyzing the sample by High Performance Liquid Chromatography (HPLC) to thereby calculate drug concentrations.
(§2) A Model Fasted Duodenum (MFD) solution which mimics the chemical environment in the small intestine was prepared, comprising the PBS solution described in Example 1 mixed with 14.7 mM sodium taurocholic acid and 2.8 mM of 1-palmitoyl-2-oleyl-sn-glycero-3-phosphocholine. Four in vitro dissolution tests were performed in 500 mL of the so-prepared MFD solution to test the effectiveness of drug release from the dosage composition of the invention against Controls D, E and F. The sampling and analysis were carried out as in Example 1.
An MFD solution was prepared as in Example 2. Four in vitro dissolution tests were performed in 30 ml of the MFD solution to test the effectiveness of drug release from the dosage composition of the invention against Controls J, K and L. The sampling and analysis were carried out as in Example 1.

[2] = In vitro dissolution test in 40 mL PBS solution (Reference Example 3); conditions: 37°C
Method: as §1
As a control (Control G), tablets were similarly prepared except rather than using the drug/CAP solid dispersion, a mixture of 1 part crystalline drug to 3 parts CAP was used. As a second control (Control H), 26 mg of crystalline drug alone was used. As a third control (Control I), 105.3 mg of the solid dispersion with no erodible matrix was used. In order to determine the drug release profile of the dosage form of the present invention as compared to the controls, in vitro dissolution tests in 40 mL of the PBS solution of Example 1 at 37°C were performed as in Example 1.

[3] = In vitro dissolution test in 35 mL PBS solution (Example 1); conditions: 35 mL PBS pH 6.5, 37°C
Method: as §1

[4] = In vitro dissolution test in 500 mL Model Fasted Duodenum (MFD) solution (Example 2); conditions: 500 mL MFD solution
Method: as §1, §2

[5] = Water solubility of the drug

For `CN[C@H]1CC[C@@H](c2ccc(Cl)c(Cl)c2)c2ccccc21.Cl` (relative stereo) [Control K, (1S-cis)-4-(3,4-dichlorophenyl)-1,2,3,4-tetrahydro-N-methyl-1-napthalenamine hydrochloride], the AUC ([1]; time 0 min) was 0 µg·min/mL, the “[Drug]” value ([1]; time 0 min) was 0 µg/mL and the AUC ([1]; time 10 min) was 1073 µg·min/mL. The “[Drug]” value ([1]; time 10 min) was 0 µg/mL, the AUC ([1]; time 20 min) was 5459 µg·min/mL and the “[Drug]” value ([1]; time 20 min) was 358 µg/mL. The AUC ([1]; time 40 min) was 16706 µg·min/mL, the “[Drug]” value ([1]; time 40 min) was 520 µg/mL and the AUC ([1]; time 90 min) was 37083 µg·min/mL. For the same compound, the “[Drug]” value ([1]; time 90 min) was 605 µg/mL, the AUC ([1]; time 120 min) was 40231 µg·min/mL and the “[Drug]” value ([1]; time 120 min) was 210 µg/mL. For the same compound, the AUC ([1]; time 240 min) was 52796 µg·min/mL, the “[Drug]” value ([1]; time 240 min) was 130 µg/mL and the AUC ([1]; time 360 min) was 70528 µg·min/mL. For the same compound, the “[Drug]” value ([1]; time 360 min) was 159 µg/mL, the AUC ([1]; time 540 min) was 108647 µg·min/mL and the “[Drug]” value ([1]; time 540 min) was 136 µg/mL. For the same compound, the “[Drug]” value ([1]; time 1200 min) was 128 µg/mL.

In the case of `O=C(N[C@@H](Cc1ccccc1)[C@@H](O)C(=O)N1C[C@@H](O)[C@@H](O)C1)c1cc2cc(Cl)ccc2[nH]1` [Control H, 5-chloro-1H-indole-2-carboxylic acid [(1S) -benzyl-3-((3R,4S) -dihydroxypyrrolidin-1-yl-) - (2R) -hydroxy-3-oxypropyl]amide], the AUC ([2]; time 0 min) is reported as 0 µg·min/mL, the “[Drug]” value ([2]; time 0 min) is reported as 0.0 µg/mL and the AUC ([2]; time 10 min) is reported as 0 µg·min/mL. For the same compound, the “[Drug]” value ([2]; time 10 min) was 107.8 µg/mL, the AUC ([2]; time 20 min) was 323 µg·min/mL and the “[Drug]” value ([2]; time 20 min) was 130.1 µg/mL. For the same compound, the AUC ([2]; time 40 min) was 1513 µg·min/mL, the “[Drug]” value ([2]; time 40 min) was 109.1 µg/mL and the AUC ([2]; time 90 min) was 3906 µg·min/mL. The “[Drug]” value ([2]; time 90 min) was 118.1 µg/mL, the AUC ([2]; time 120 min) was 9587 µg·min/mL and the “[Drug]” value ([2]; time 120 min) was 121.8 µg/mL. The AUC ([2]; time 180 min) was 13186 µg·min/mL, the “[Drug]” value ([2]; time 180 min) was 151.7 µg/mL and the AUC ([2]; time 240 min) was 21392 µg·min/mL. The “[Drug]” value ([2]; time 240 min) was 170.4 µg/mL, the AUC ([2]; time 360 min) was 31055 µg·min/mL and the “[Drug]” value ([2]; time 360 min) was 135.3 µg/mL. For the same compound, the AUC ([2]; time 540 min) was 49395 µg·min/mL, the “[Drug]” value ([2]; time 540 min) was 134.8 µg/mL and the AUC ([2]; time 720 min) was 73701 µg·min/mL. For the same compound, the “[Drug]” value ([2]; time 720 min) was 168.3 µg/mL.

With `O=C(N[C@@H](Cc1ccccc1)[C@@H](O)C(=O)N1C[C@@H](O)[C@@H](O)C1)c1cc2cc(Cl)ccc2[nH]1` [Control B, 5-chloro-1H-indole-2-carboxylic acid [(1S) -benzyl-3-((3R,4S) -dihydroxypyrrolidin-1-yl-) - (2R) -hydroxy-3-oxypropyl]amide] the AUC ([3]; time 0 min) was 0 µg·min/mL, the “[Drug]” value ([3]; time 0 min) was 0.0 µg/mL and the AUC ([3]; time 4 min) was 180 µg·min/mL. For the same compound, the “[Drug]” value ([3]; time 4 min) was 90.1 µg/mL, the AUC ([3]; time 10 min) was 754 µg·min/mL and the “[Drug]” value ([3]; time 10 min) was 101.0 µg/mL. The AUC ([3]; time 20 min) was 1753 µg·min/mL, the “[Drug]” value ([3]; time 20 min) was 98.8 µg/mL and the AUC ([3]; time 40 min) was 4402 µg·min/mL. For the same compound, the “[Drug]” value ([3]; time 40 min) was 166.1 µg/mL, the AUC ([3]; time 90 min) was 12252 µg·min/mL and the “[Drug]” value ([3]; time 90 min) was 147.9 µg/mL. For the same compound, the AUC ([3]; time 120 min) was 16937 µg·min/mL, the “[Drug]” value ([3]; time 120 min) was 164.5 µg/mL and the AUC ([3]; time 180 min) was 25991 µg·min/mL. For the same compound, the “[Drug]” value ([3]; time 180 min) was 137.3 µg/mL, the AUC ([3]; time 240 min) was 34362 µg·min/mL and the “[Drug]” value ([3]; time 240 min) was 141.8 µg/mL. For the same compound, the AUC ([3]; time 360 min) was 52528 µg·min/mL, the “[Drug]” value ([3]; time 360 min) was 161.0 µg/mL and the AUC ([3]; time 525 min) was 80574 µg·min/mL. The “[Drug]” value ([3]; time 525 min) was 179.0 µg/mL, the AUC ([3]; time 720 min) was 113346 µg·min/mL and the “[Drug]” value ([3]; time 720 min) was 157.2 µg/mL.

With `CON(C)C(=O)C(O)[C@H](Cc1ccccc1)NC(=O)c1cc2cc(Cl)ccc2[nH]1` (stereo in doubt) [Control E, [R-(R*S*)]-5 chloro-N-[2-hydroxy-3-[(methoxymethylamino)-3-oxo-1(phenylmethyl)propyl]propyl]-1H-indole-2-carboxymide] the AUC ([4]; time 0 min) was 0 µg·min/mL, the “[Drug]” value ([4]; time 0 min) was 0.0 µg/mL and the AUC ([4]; time 10 min) was 21 µg·min/mL. The “[Drug]” value ([4]; time 10 min) was 6.9 µg/mL, the AUC ([4]; time 20 min) was 72 µg·min/mL and the “[Drug]” value ([4]; time 20 min) was 3.2 µg/mL. The AUC ([4]; time 40 min) was 172 µg·min/mL, the “[Drug]” value ([4]; time 40 min) was 6.8 µg/mL and the AUC ([4]; time 90 min) was 795 µg·min/mL. The “[Drug]” value ([4]; time 90 min) was 18.1 µg/mL, the AUC ([4]; time 120 min) was 1281 µg·min/mL and the “[Drug]” value ([4]; time 120 min) was 14.3 µg/mL. The AUC ([4]; time 180 min) was 2219 µg·min/mL, the “[Drug]” value ([4]; time 180 min) was 17.0 µg/mL and the AUC ([4]; time 240 min) was 2992 µg·min/mL. The “[Drug]” value ([4]; time 240 min) was 8.8 µg/mL, the AUC ([4]; time 360 min) was 4030 µg·min/mL and the “[Drug]” value ([4]; time 360 min) was 8.5 µg/mL. For the same compound, the AUC ([4]; time 525 min) was 5756 µg·min/mL, the “[Drug]” value ([4]; time 525 min) was 10.7 µg/mL and the AUC ([4]; time 720 min) was 7525 µg·min/mL. The “[Drug]” value ([4]; time 720 min) was 9.0 µg/mL and the “[Drug]” value ([4]; time 1200 min) was 8.0 µg/mL.

For `CON(C)C(=O)[C@H](O)[C@H](Cc1ccccc1)NC(=O)c1cc2cc(Cl)ccc2[nH]1` [[R-(R*S*)]-5 chloro-N-[2-hydroxy-3-[(methoxymethylamino)-3-oxo-1(phenylmethyl)propyl]propyl]-1H-indole-2-carboxymide], the solubility [5] was 1 µg/mL (≈ 2.4 µM).

Compound `CN[C@H]1CC[C@@H](c2ccc(Cl)c(Cl)c2)c2ccccc21.Cl` (relative stereo) [(1S-cis)-4-(3,4-dichlorophenyl)-1,2,3,4-tetrahydro-N-methyl-1-napthalenamine hydrochloride] has a water solubility [5] of 70 µg/mL.
